Reference: ChEMBL document CHEMBL3414563, “Rational design of partial agonists for the muscarinic m1 acetylcholine receptor” (J Med Chem, 2015)
Activity calls are given as the source filed them. The rule behind the calls is not given here.

Each compound was assayed against T1, Muscarinic acetylcholine receptor M1 (Homo sapiens, UniProt P11229) (assay: biochemical). Conditions: not given.
T1 sequence (P11229 whole entry): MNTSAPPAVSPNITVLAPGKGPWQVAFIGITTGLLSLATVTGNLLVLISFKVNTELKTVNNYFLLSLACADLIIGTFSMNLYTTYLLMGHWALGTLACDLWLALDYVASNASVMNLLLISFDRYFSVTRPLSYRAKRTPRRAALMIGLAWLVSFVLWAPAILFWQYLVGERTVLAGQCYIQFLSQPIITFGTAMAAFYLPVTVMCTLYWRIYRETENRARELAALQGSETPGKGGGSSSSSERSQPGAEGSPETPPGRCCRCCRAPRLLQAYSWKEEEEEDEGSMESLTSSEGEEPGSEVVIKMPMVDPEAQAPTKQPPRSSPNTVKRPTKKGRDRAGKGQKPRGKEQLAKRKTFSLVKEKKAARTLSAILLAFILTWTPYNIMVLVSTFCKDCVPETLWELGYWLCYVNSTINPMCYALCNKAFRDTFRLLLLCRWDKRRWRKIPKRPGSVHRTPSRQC

Row | Structure (SMILES) | Kd [nM]
1 | C[N+](C)(CC#CCOC1=NOCC1)CCCCCCNC(=O)c1cn(Cc2ccccc2)c2c(F)cccc2c1=O | 490
2 | C[N+](C)(CC#CCOC1=NOCC1)CCCCNC(=O)c1cn(Cc2ccccc2)c2cc(Br)ccc2c1=O | 141
3 | C[N+](C)(CC#CCOC1=NOCC1)CCCCCCNC(=O)c1cn(Cc2ccccc2)c2cc(Br)ccc2c1=O | 74.1
4 | C[N+](C)(C)CC#CCOC1=NOCC1 | 2140
5 | C[N+](C)(CC#CCOC1=NOCC1)CCCCNC(=O)c1cn(Cc2ccccc2)c2cc(Cl)c(F)cc2c1=O | 72.4

Now from value to compound:

Row | Kd [nM] | Structure (SMILES)
6 | 151 | C[N+](C)(CC#CCOC1=NOCC1)CCCCCCNC(=O)c1cn(Cc2ccccc2)c2ccc(F)cc2c1=O
7 | 166 | CC[C@@H]1SC2(CCNCC2)N(CCCCCCCCOc2ccc3cc(Cn4cc(C(=O)O)c(=O)c5cccc(F)c54)ccc3c2)C1=O
8 | 851 | C[N+](C)(CC#CCOC1=NOCC1)CCCCCCNC(=O)c1cn(Cc2ccccc2)c2cc(Cl)c(F)cc2c1=O

Each compound was assayed against T2, Muscarinic acetylcholine receptor M1 (Homo sapiens) (UniProt P11229) (assay: Modulator activity at human muscarinic M1 acetylcholine receptor expressed in CHO cell membranes assessed as induction of left shift of acetylcholine-induced inhibition of [3H]NMS binding by radioligand binding assay). Conditions: not given.
T2 sequence (whole entry): T1 sequence (P11229 whole entry)

Row | inhibition | Structure (SMILES)
9 | inactive | C[N+](C)(CC#CCOC1=NOCC1)CCCCCCNC(=O)c1cn(Cc2ccccc2)c2c(F)cccc2c1=O

The compounds below were run against T2, Muscarinic acetylcholine receptor M1 (Homo sapiens) (assay: Allosteric inhibition of [3H]NMS dissociation from human muscarinic M1 acetylcholine receptor expressed in CHO cell membranes by radioligand binding assay). Conditions: not given.

Row | pEC0.5 | Structure (SMILES)
10 | 6.1 | C[N+](C)(CC#CCOC1=NOCC1)CCCCCCNC(=O)c1cn(Cc2ccccc2)c2c(F)cccc2c1=O

These compounds were tested against T2, Muscarinic acetylcholine receptor M1 (Homo sapiens) (assay: not given). Conditions: CHO.

Row | pKA | Structure (SMILES)
11 | 6.98 | C[N+](C)(CC#CCOC1=NOCC1)CCCCCCNC(=O)c1cn(Cc2ccccc2)c2c(F)cccc2c1=O

Each compound was assayed against T2, Muscarinic acetylcholine receptor M1 (Homo sapiens) (assay: Partial agonist activity at human muscarinic M1 acetylcholine receptor expressed in CHO cells assessed as increase in IP1 accumulation at 10 uM incubated for 30 mins in presence of 1 uM Gq protein inhibitor UBO-QIC by FRET based HTRF assay). Conditions: not given.
Type: functional, cell-based

Row | Structure (SMILES) | Activity
12 | C[N+](C)(CC#CCOC1=NOCC1)CCCCCCNC(=O)c1cn(Cc2ccccc2)c2c(F)cccc2c1=O | inactive
13 | C[N+](C)(CC#CCOC1=NOCC1)CCCCNC(=O)c1cn(Cc2ccccc2)c2cc(Br)ccc2c1=O | inactive
14 | C[N+](C)(CC#CCOC1=NOCC1)CCCCCCNC(=O)c1cn(Cc2ccccc2)c2cc(Br)ccc2c1=O | inactive
15 | C[N+](C)(CC#CCOC1=NOCC1)CCCCNC(=O)c1cn(Cc2ccccc2)c2cc(Cl)c(F)cc2c1=O | inactive

Now from value to compound:

Row | Activity | Structure (SMILES)
16 | inactive | C[N+](C)(CC#CCOC1=NOCC1)CCCCCCNC(=O)c1cn(Cc2ccccc2)c2ccc(F)cc2c1=O
17 | inactive | C[N+](C)(CC#CCOC1=NOCC1)CCCCCCNC(=O)c1cn(Cc2ccccc2)c2cc(Cl)c(F)cc2c1=O

These compounds were tested against T2, Muscarinic acetylcholine receptor M1 (Homo sapiens) (assay: Partial agonist activity at human muscarinic M1 acetylcholine receptor expressed in CHO cells assessed as increase in IP1 accumulation at 10 uM incubated for 30 mins by FRET based HTRF assay relative to 100 uM acetylcholine). Conditions: not given.
Type: functional, cell-based

Row | Emax [%] | Structure (SMILES)
18 | 12 | CC[C@@H]1SC2(CCNCC2)NC1=O
19 | 61 | CC[C@@H]1SC2(CCNCC2)N(CCCCCCCCOc2ccc3cc(Cn4cc(C(=O)O)c(=O)c5cccc(F)c54)ccc3c2)C1=O
20 | 55 | CC[C@@H]1SC2(CCNCC2)N(CCCOc2ccc3cc(Cn4cc(C(=O)O)c(=O)c5cccc(F)c54)ccc3c2)C1=O

These compounds were tested against T2, Muscarinic acetylcholine receptor M1 (Homo sapiens) (assay: Partial agonist activity at human muscarinic M1 acetylcholine receptor expressed in CHO cells assessed as increase in IP1 accumulation at 10 uM incubated for 30 mins in presence of 100 ng/ml Gi protein inhibitor PTX by FRET based HTRF assay). Conditions: not given.
Type: functional, cell-based

Row | Activity | Structure (SMILES)
21 | Active | CC[C@@H]1SC2(CCNCC2)N(CCCCCCCCOc2ccc3cc(Cn4cc(C(=O)O)c(=O)c5cccc(F)c54)ccc3c2)C1=O
22 | Active | CC[C@@H]1SC2(CCNCC2)N(CCCOc2ccc3cc(Cn4cc(C(=O)O)c(=O)c5cccc(F)c54)ccc3c2)C1=O
23 | Active | COc1ccc2cc(Cn3cc(C(=O)O)c(=O)c4cccc(F)c43)ccc2c1

The compounds below were run against T2, Muscarinic acetylcholine receptor M1 (Homo sapiens) (assay: Partial agonist activity at human muscarinic M1 acetylcholine receptor expressed in CHO cells assessed as increase in IP1 accumulation at 0.3 uM incubated for 30 mins by FRET based HTRF assay relative to 100 uM acetylcholine). Conditions: not given.
Type: functional, cell-based

Row | Emax [%] | Structure (SMILES)
24 | 1 | COc1ccc2cc(Cn3cc(C(=O)O)c(=O)c4cccc(F)c43)ccc2c1

Molecular target: T2, Muscarinic acetylcholine receptor M1 (Homo sapiens)
Assay: not given
Conditions: CHO
Remark: another data set of the same source

Row | pKb | Structure (SMILES)
25 | 6.3 | C[N+](C)(CC#CCOC1=NOCC1)CCCCCCNC(=O)c1cn(Cc2ccccc2)c2c(F)cccc2c1=O

These compounds were tested against T2, Muscarinic acetylcholine receptor M1 (Homo sapiens) (assay: Allosteric inhibition of [3H]NMS dissociation rate constant k_1 from human muscarinic M1 acetylcholine receptor expressed in CHO cell membranes by radioligand binding assay). Conditions: concentration not given here.

Row | inhibition [%] | Structure (SMILES)
26 | 15 | C[N+](C)(CC#CCOC1=NOCC1)CCCCCCNC(=O)c1cn(Cc2ccccc2)c2c(F)cccc2c1=O

These compounds were tested against T2, Muscarinic acetylcholine receptor M1 (Homo sapiens) (assay: Partial agonist activity at human muscarinic M1 acetylcholine receptor expressed in CHO cells assessed as increase in IP1 accumulation at 10 uM incubated for 30 mins by FRET based HTRF assay in presence of 1 uM atropine). Conditions: not given.
Type: functional, cell-based

Row | Activity | Structure (SMILES)
27 | inactive | CC[C@@H]1SC2(CCNCC2)N(CCCOc2ccc3cc(Cn4cc(C(=O)O)c(=O)c5cccc(F)c54)ccc3c2)C1=O

These compounds were tested against T1, Muscarinic acetylcholine receptor M1 (assay: not given). Conditions: not given.

Row | Structure (SMILES) | EC50 [nM]
28 | C[N+](C)(CC#CCOC1=NOCC1)CCCCCCNC(=O)c1cn(Cc2ccccc2)c2c(F)cccc2c1=O | 178
29 | C[N+](C)(CC#CCOC1=NOCC1)CCCCNC(=O)c1cn(Cc2ccccc2)c2cc(Br)ccc2c1=O | 63.1
30 | C[N+](C)(CC#CCOC1=NOCC1)CCCCCCNC(=O)c1cn(Cc2ccccc2)c2cc(Br)ccc2c1=O | 15.5
31 | C[N+](C)(C)CC#CCOC1=NOCC1 | 2.04
32 | C[N+](C)(CC#CCOC1=NOCC1)CCCCNC(=O)c1cn(Cc2ccccc2)c2cc(Cl)c(F)cc2c1=O | 32.4

Other lines, results leading:

Row | EC50 [nM] | Structure (SMILES)
33 | 58.9 | C[N+](C)(CC#CCOC1=NOCC1)CCCCCCNC(=O)c1cn(Cc2ccccc2)c2ccc(F)cc2c1=O
34 | 60.3 | CC[C@@H]1SC2(CCNCC2)N(CCCCCCCCOc2ccc3cc(Cn4cc(C(=O)O)c(=O)c5cccc(F)c54)ccc3c2)C1=O
35 | 302 | C[N+](C)(CC#CCOC1=NOCC1)CCCCCCNC(=O)c1cn(Cc2ccccc2)c2cc(Cl)c(F)cc2c1=O

The compounds below were run against T2, Muscarinic acetylcholine receptor M1 (Homo sapiens) (assay: Modulator activity at human muscarinic M1 acetylcholine receptor expressed in CHO cell membranes assessed as reduction in pIC50 for acetylcholine-induced inhibition of [3H]NMS binding by radioligand binding assay). Conditions: not given.

Row | inhibition | Structure (SMILES)
36 | Active | C[N+](C)(CC#CCOC1=NOCC1)CCCCCCNC(=O)c1cn(Cc2ccccc2)c2c(F)cccc2c1=O
